57 compounds from patent US10051861B2, “N-arylamidine-substituted trifluoroethyl sulfide derivatives as acaricides and insecticides” (BAYER CROPSCIENCE AG, priority 2011, dated 2018) can be followed below.

One assay relates to greenhouse red spider mite (Tetranychus urticae). Briefly: Tetranychus urticae spray test, OP-resistant (TETRUR), bean leaf disks. The format is in vivo. The conditions noted are these: Tetranychus urticae, foliar, 144 h, application rate 100 g/ha, after 6 days; read-out: efficacy (spider mites killed). The protocol:
After 6 days, the effect in % is determined.
With `Cc1cc(F)c(/N=C(\N)C2(Cl)CC2)cc1SCC(F)(F)F` [Ia-58], the pest or weed control at 100 g/ha worked out at 100%.

The assay is the same for the next values; noted with them: Tetranychus urticae, foliar, 144 h, application rate 500 g/ha, after 6 days; read-out: efficacy (spider mites killed).
Consider `Cc1cc(Cl)c(/N=C(\N)C(F)(F)C(F)(F)Cl)cc1SCC(F)(F)F` [Ia-30], for which the pest or weed control at 500 g/ha amounted to 100%.

In the case of `CN(C)/C(=N/c1cc(SCC(F)(F)F)c(Br)cc1Br)C(F)(F)F` [Ia-32], the pest or weed control at 500 g/ha was found to be 100%.

Consider `CN/C(=N/c1cc(SCC(F)(F)F)c(Br)cc1Br)C(F)(F)F` [Ia-37], for which the pest or weed control at 500 g/ha is 100%.

For the compound `Cc1cc(F)c(/N=C(\N)c2cccnc2)cc1SCC(F)(F)F` [Ia-40], the pest or weed control at 500 g/ha was 100%.

For the compound `Cc1cc(F)c(/N=C(\N)c2ccncn2)cc1SCC(F)(F)F` [Ia-42], the pest or weed control at 500 g/ha came to 100%.

`CN/C(=N/c1cc(SCC(F)(F)F)c(Br)cc1F)C(F)(F)F` [Ia-43]: the pest or weed control at 500 g/ha stood at 100%.

Take `Cc1cc(F)c(/N=C(\N)c2ccc(Cl)nc2)cc1SCC(F)(F)F` [Ia-46]: the pest or weed control at 500 g/ha was 100%.

Regarding `Cc1cc(F)c(/N=C(\N)C(F)(F)C(F)(F)Cl)cc1SCC(F)(F)F` [Ia-47], the pest or weed control at 500 g/ha is 100%.

Turning to `Cc1cc(Cl)c(/N=C(\N)C(F)F)cc1SCC(F)(F)F` [Ia-48], the pest or weed control at 500 g/ha amounted to 100%.

For the compound `Cc1cc(Cl)c(SCC(F)(F)F)cc1/N=C(\N)c1ccccn1` [Ia-49], the pest or weed control at 500 g/ha is 100%.

With `CCN(CC)/C(=N/c1cc(SCC(F)(F)F)c(C)cc1F)C(F)(F)F` [Ia-51], the pest or weed control at 500 g/ha stood at 100%.

As to `CN/C(=N/c1cc(SCC(F)(F)F)c(Cl)cc1F)C(F)(F)F` [Ia-52], the pest or weed control at 500 g/ha is 100%.

As to `Cc1cc(Cl)c(SCC(F)(F)F)cc1/N=C(\N(C)C)C(F)(F)F` [Ia-53], the pest or weed control at 500 g/ha is 100%.

For `Cc1cc(F)c(/N=C(/NC2COC2)C(F)(F)F)cc1SCC(F)(F)F` [Ia-54], the pest or weed control at 500 g/ha is 100%.

As for `Cc1cc(F)c(/N=C2/CCCN2CC(F)F)cc1SCC(F)(F)F` [Ia-55], the pest or weed control at 500 g/ha stood at 100%.

As to `Cc1cc(Cl)c(/N=C(\N)C(F)(F)F)cc1SCC(F)(F)F` [Ia-56], the pest or weed control at 500 g/ha was 100%.

In the case of `CN(C)/C(=N\c1cc(SCC(F)(F)F)c(Cl)cc1Cl)C(F)(F)F` [Ia-57], the pest or weed control at 500 g/ha amounted to 100%.

With `Cc1cc(F)c(/N=C(/c2cccnc2)N(C)C)cc1SCC(F)(F)F` [Ia-59], the pest or weed control at 500 g/ha came to 90%.

As to `CN/C(=N\c1cc(SCC(F)(F)F)c(C)cc1F)c1ccc(Cl)cc1` [Ia-60], the pest or weed control at 500 g/ha came out at 100%.

Regarding `CN/C(=N\c1cc(SCC(F)(F)F)c(C)cc1F)c1cccnc1` [Ia-61, N′-{2-Fluoro-4-methyl-5-[(2,2,2-trifluoroethyl)sulfanyl]phenyl}-N-methylpyridine-3-carboximidamide], the pest or weed control at 500 g/ha was 100%.

Turning to `CN1CCCC/C1=N\c1cc(SCC(F)(F)F)c(Cl)cc1Cl` [Ia-62], the pest or weed control at 500 g/ha was 90%.

On to `Cc1cc(F)c(/N=C(\N)c2ccccn2)cc1SCC(F)(F)F` [Ia-63], for which the pest or weed control at 500 g/ha turned out to be 90%.

Turning to `CN/C(=N\c1cc(SCC(F)(F)F)c(C)cc1Cl)c1cccnc1` [Ia-64], the pest or weed control at 500 g/ha was found to be 100%.

For the compound `Cc1cc(C)c(SCC(F)(F)F)cc1/N=C(\N)C(F)(F)C(F)(F)Cl` [Ia-65], the pest or weed control at 500 g/ha worked out at 100%.

Regarding `Cc1cc(F)c(/N=C(\N)C2CC2(F)Cl)cc1SCC(F)(F)F` (stereo not drawn) [Ia-67], the pest or weed control at 500 g/ha was determined as 100%.

Consider `CN1CCC/C1=N\c1cc(SCC(F)(F)F)c(Cl)cc1Cl` [Ia-68], for which the pest or weed control at 500 g/ha turned out to be 90%.

With `CN/C(=N\c1cc(SCC(F)(F)F)c(C)cc1F)c1ccccc1Cl` [Ia-69], the pest or weed control at 500 g/ha is 100%.

Take `Cc1cc(Cl)c(SCC(F)(F)F)cc1/N=C(\N)C(F)(F)C(F)(F)F` [Ia-70]: the pest or weed control at 500 g/ha was determined as 100%.

Regarding `Cc1cc(Cl)c(/N=C(/c2ccc(Cl)cc2)N(C)C)cc1SCC(F)(F)F` [Ia-71], the pest or weed control at 500 g/ha stood at 100%.

On to `CN/C(=N\c1cc(SCC(F)(F)F)c(C)cc1F)c1ccccn1` [Ia-72], for which the pest or weed control at 500 g/ha was 100%.

Regarding `Cc1cc(F)c(/N=C(\N)c2ccncc2)cc1SCC(F)(F)F` [Ia-73], the pest or weed control at 500 g/ha stood at 100%.

For `Cc1cc(Cl)c(SCC(F)(F)F)cc1/N=C(\N)C1(Cl)CC1` [Ia-74], the pest or weed control at 500 g/ha is 100%.

`Cc1cc(F)c(/N=C(\N)C2CC2(Cl)Cl)cc1SCC(F)(F)F` (stereo not drawn) [Ia-75]: the pest or weed control at 500 g/ha was 100%.

`Cc1cc(Cl)c(SCC(F)(F)F)cc1/N=C(\N)C(F)(F)F` [Ia-76]: the pest or weed control at 500 g/ha worked out at 100%.

In the case of `CN(C)/C(=N/c1ccc(Cl)c(SCC(F)(F)F)c1)C(F)(F)F` [Ia-77], the pest or weed control at 500 g/ha was determined as 100%.

For `Cc1cc(C)c(SCC(F)(F)F)cc1/N=C(\N)c1ccc(Cl)nc1` [Ia-81], the pest or weed control at 500 g/ha was 100%.

For `COC/C(N)=N/c1cc(SCC(F)(F)F)c(C)cc1F` [Ia-82], the pest or weed control at 500 g/ha is 100%.

Consider `N/C(=N\c1cccc(SCC(F)(F)F)c1)c1ccccn1` [Ia-83], for which the pest or weed control at 500 g/ha was 100%.

For the compound `Cc1cc(F)c(/N=C(/c2ccccc2Cl)N(C)C)cc1SCC(F)(F)F` [Ia-84], the pest or weed control at 500 g/ha turned out to be 100%.

As to `Cc1cc(F)c(/N=C(/NC2(C)CC2)C(F)(F)F)cc1SCC(F)(F)F` [Ia-85], the pest or weed control at 500 g/ha was 100%.

Regarding `Cc1cc(F)c(/N=C(\N)c2ccc(C(F)(F)F)nc2)cc1SCC(F)(F)F` [Ia-86], the pest or weed control at 500 g/ha turned out to be 100%.

For the compound `CN/C(=N\c1cc(SCC(F)(F)F)c(Cl)cc1C)C(F)(F)F` [Ia-87], the pest or weed control at 500 g/ha was found to be 100%.

With `Cc1cc(F)c(/N=C2\CCCCN2C)cc1SCC(F)(F)F` [Ia-90], the pest or weed control at 500 g/ha was 80%.

Turning to `CN/C(=N\c1cc(SCC(F)(F)F)c(C)cc1C)c1cccnc1` [Ia-91], the pest or weed control at 500 g/ha stood at 90%.

As to `Cc1cc(F)c(/N=C(/C2CC2)N(C)C)cc1SCC(F)(F)F` [Ia-93], the pest or weed control at 500 g/ha was determined as 100%.

Turning to `Cc1cc(F)c(/N=C(\N)C2CCC2)cc1SCC(F)(F)F` [Ia-94], the pest or weed control at 500 g/ha was 100%.

Take `Cc1cc(C)c(SCC(F)(F)F)cc1/N=C(\N)c1ccncc1` [Ia-95]: the pest or weed control at 500 g/ha was 100%.

For the compound `CN/C(=N/c1cc(SCC(F)(F)F)c(F)cc1Cl)C(F)(F)F` [Ia-97], the pest or weed control at 500 g/ha amounted to 100%.

In the case of `Cc1cc(C)c(SCC(F)(F)F)cc1/N=C(\N)c1ccccn1` [Ia-98], the pest or weed control at 500 g/ha is 100%.

Take `Cc1cc(F)c(/N=C(\N)C2CCCO2)cc1SCC(F)(F)F` (stereo not drawn) [Ia-99]: the pest or weed control at 500 g/ha was 100%.

For the compound `N/C(=N\c1cccc(SCC(F)(F)F)c1)C1(Cl)CC1` [Ia-100], the pest or weed control at 500 g/ha was found to be 100%.

Still in this assay, the particulars now being: application rate 500 g/ha, after 6 days.
With `Cc1cc(F)c(N=C(N)C(F)(F)C(F)(F)C(F)(F)C(F)(F)C(F)(F)C(F)(F)C(F)(F)F)cc1SCC(F)(F)F` [Ia-06], the “efficacy (spider mites killed)” value is recorded as 100%.

Consider `Cc1cc(F)c(N=C(N(Cc2ccccn2)Cc2ccccn2)C(F)(F)F)cc1SCC(F)(F)F` [Ia-08], for which the “efficacy (spider mites killed)” value is recorded as 100%.

Take `Cc1cc(F)c(N=C(NS(=O)(=O)C(F)(F)F)C(F)(F)F)cc1SCC(F)(F)F` [Ia-16]: the “efficacy (spider mites killed)” value was found to be 100%.

Consider `CNC(=Nc1cc(SCC(F)(F)F)c(C)cc1Cl)C(F)(F)F` [Ia-20], for which the “efficacy (spider mites killed)” value is given as 100%.

Turning to `Cc1ccc(N=C(N)C(F)(F)F)cc1SCC(F)(F)F` [Ia-25], the “efficacy (spider mites killed)” value was 100%.
